Legend:
endo-α-L-fucosidase = assay: effect of calcium salt, protein and sodium chloride on the enzymatic reaction of endo-α-L-fucosidase; type: biochemical, Fucophilus fucoidanolyticus strain SI-1234; conditions: for activation of endo-α-L-fucosidase (relative activity versus concentration in the reaction system): result in words
Text: (§1) Then, the relationship between the relative activity of the α-D-glucuronidase or the endo-α-L-fucosidase of the present invention and the concentration of calcium chloride contained in the reaction system was examined.
(§2) Then, the relationship between the relative activity of the α-D-glucuronidase or the endo-α-L-fucosidase of the present invention and the concentration of bovine serum albumin contained in the reaction system was examined.
(§3) Then, the relationship between the relative activity of the α-D-glucuronidase or the endo-α-L-fucosidase of the present invention and the concentration of sodium chloride contained in the reaction system was examined.

α-D-glucuronidase = assay: effect of calcium salt, protein and sodium chloride on the enzymatic reaction of α-D-glucuronidase; type: biochemical, Fucophilus fucoidanolyticus strain SI-1234; conditions: for activation of α-D-glucuronidase (relative activity versus concentration in the reaction system): result in words
Text: as §1, §2, §3

[1] = oligosaccharide having a low molecular weight as substrate
[2] = sulfated glucuronofucan having a high molecular weight as substrate

Molecule | activation of endo-α-L-fucosidase (endo-α-L-fucosidase; [1]) | activation of endo-α-L-fucosidase (endo-α-L-fucosidase; [2]) | activation of α-D-glucuronidase (α-D-glucuronidase; [1]) | activation of α-D-glucuronidase (α-D-glucuronidase; [2]) | activation of endo-α-L-fucosidase (relative activity versus concentration in the reaction system) (endo-α-L-fucosidase) | activation of α-D-glucuronidase (relative activity versus concentration in the reaction system) (α-D-glucuronidase)
[Cl-].[Na+] [sodium chloride] | not activated | activates | not activated | activates |  | 
[Ca+2].[Cl-].[Cl-] [calcium chloride] |  |  |  |  | activated | activated
bovine serum albumin: protein added to the reaction system as enzyme activator |  |  |  |  | activated | activated
